Assay results: article PMC8447191, “Peptide Amphiphilic-Based Supramolecular Structures with Anti-HIV-1 Activity” (Bioconjugate Chemistry, 2021)
*1 amine or outer side, *2 acyl side, *3 side chain or, on linkers, in order; H or OH if unused. Where a SMILES comes first, the peptide text is derived from it. Side-chain parts run from the residue outwards. [ ]: non-standard residue; d: D form. The star is where a group is joined. PEG28 = NCCOCCOCCOCCOCCOCCOCCOCCOCCOCCOCCOCCOCCOCCOCCOCCOCCOCCOCCOCCOCCOCCOCCOCCOCCOCCOCCOCCOCCC(=O)O; X2 = CC(C)CCC[C@@H](C)[C@H]1CC[C@H]2[C@@H]3CC=C4C[C@@H](OC(=O)C*)CC[C@]4(C)[C@H]3CC[C@]12C; N(octadecyl)2 = CCCCCCCCCCCCCCCCCCN(CCCCCCCCCCCCCCCCCC)*; NHOctadecyl = CCCCCCCCCCCCCCCCCCN*; PEG4 = NCCOCCOCCOCCOCCC(=O)O; Suc = O=C(CCC(=O)[*:2])[*:1]

How the values were obtained:
[1] = set-up: method as in 2 sources, ref 31, 32 = [31]; doi:10.1007/BF02682570; Schick M. J. ( 1966 ) Micelle formation in mixtures of nonionic and cationic detergents . J. Am. Oil Chem. Soc. 43 , 681 – 682 . 10.1007/BF02682570 . || [32]; doi:10.1016/0021-9797(70)90007-X; Barry B. W.; Morrison J. C.; Russell G. F. ( 1970 ) Prediction of the critical micelle concentration of mixtures of alkyltrimethylammonium salts . J. Colloid Interface Sci. 33 , 554 – 561 . 10.1016/ ||| ref 33, 34 = [33]; PMID 17658541; doi:10.1016/j.jcis.2007.06.010; Rodríguez J. L.; Sierra M. B.; Messina P. V.; Morini M. A.; Schulz P. C.; del Burgo P.; Junquera E.; Rodríguez A.; Aicart E. ( 2007 ) Surface and bulk properties of aqueous decyltrimethylammon || [34]; PMID 25356774; doi:10.1039/C4SM01575D; Pucci C.; Pérez L.; La Mesa C.; Pons R. ( 2014 ) Characterization and stability of catanionic vesicles formed by pseudo-tetraalkyl surfactant mixtures . Soft Matter 10 , 9657 – 9667 . 10.1039/C4SM0; conditions: cited from earlier work
[2] = system: HIV-1BaL; format: cell-based; conditions: HIV-1BaL, TZM-bl cells; peptide 10-0.00061 μM for 1 h at 37 °C before virus; luciferase after 48 h; sigmoid fit; mean of triplicates
Experimental: HIV-1BaL[52] was provided by the NIH AIDS Research & Reference Reagent Program (http://www.aidsreagent.org/). Viral stock was prepared by passage through activated PBMCs[53] for 11 days.
Luciferase-reporter HeLa cells stably transfected to express CD4 and CCR5; TZM-bl cells[54]−[56] were grown in Dulbecco’s Minimal Essential Medium (DMEM) (Sigma-Aldrich, Inc., St. Louis, MO) containing 10% fetal calf serum (FCS), 2 mM L-glutamine, and antibiotics (100 U of penicillin/mL, 100 μg of streptomycin/mL) at 37 °C in an atmosphere containing 5% CO2.
All inhibition assays in cellular and tissue explants models were performed using a standardized amount of virus culture supernatant normalized for infectivity. TZM-bl cells were incubated with serial dilutions of peptides (from 10 μM to 0.00061 μM) for 1 h at 37 °C, prior to challenge with HIV-1BaL. Luciferase expression (r.l.u. values) was determined after 48 h. Alternatively, tissue explants were incubated with serial dilutions of peptide (from 100 μM to 0.1 μM) for 1 h before virus (10^4 TCID50/mL) was added for 2 h. Explants were then washed four times with PBS to remove unbound virus and drug. Colorectal explants were then transferred onto gelfoam rafts (Welbeck Pharmaceuticals, UK) and cultured for 15 days as described previously[57] […]. Explants were cultured for up to 15 days in the absence of peptide. Approximately 50% of the supernatants were harvested every 2–3 days and explants were re-fed with fresh media. The extent of viral replication in tissue explants was determined by measuring the p24 antigen concentration in supernatants (INNOTEST HIV antigen mAb; Fujirebio Europe, Belgium). The extent of inhibition by each peptide was calculated. The percentage of inhibition was normalized relative to the r.l.u, for TZM-bl cells, or p24, for tissue explants, values obtained for cells or explants cultured in the absence of virus (100% inhibition) and for cells or explants infected with virus in the absence of peptide (0% inhibition). Data are the mean (±SEM) of triplicates. When a dose–response curve was obtained, IC50 and, if possible, IC95 values were calculated from sigmoid curve fits (GraphPad Prism). For all curves, R^2 is >0.7.

[3] = MTT cytotoxicity assay; format: cell-based; conditions: human, HeLa-env cells, PAs coassembled with 5% FAM, 40-2.3 μM, absorbance 560 nm
Experimental: The metabolic activity of the cell line, related to the cytotoxic effect of the compounds to be tested, is measured after 24 h using the MTT assay. This assay is based on the metabolic reduction of 3-(4,5-dimethylthiazol-2-yl)-2,5-diphenyl-2H-tetrazolium bromide (MTT), carried out by the mitochondrial enzyme succinate dehydrogenase, in a colored compound of blue color (formazan) that can be monitored by absorbance spectroscopy at 560 nm, allowing determination of the mitochondrial functionality of the treated cells.
The HeLa-env cell line is seeded in 96-well plates with an initial density of 15,000 cells per well in 100 μL of culture medium (Dulbecco’s modified Eagle’s medium, DMEM, with 10% FBS added) and incubated for 24 h at 37 °C and 5% CO2 to allow their adhesion. The cell monolayers are washed with PBS, and then 100 μL of PAs formulations (peptide amphiphiles coassembled with 5% FAM) are added in a concentration range from 40 μM to 2.3 μM. The plates are kept in incubation for further 24 h.
At the end of the incubation time, the cells are incubated for 3 h with 1 mg/mL of MTT, dissolved in culture medium without FBS, to allow the formation of formazan crystals. Subsequently, 100 μL of DMSO are added to wells, stirring the plates for 30 min at room temperature to facilitate the complete dissolution of the crystals. Finally, the absorbance at 560 nm is measured in a microplate reader.
The results are expressed as relative percentage between absorbance of PA formulations against absorbance of its DMSO controls and CC50 and CC25 values are taken from dose–response curves.

[4] = Visual stability and aspect of POPC vesicles mixed with PAs (SAXS samples); format: physicochemical; conditions: POPC 20 mM + 2 mM PA, 0.5% DMSO
Experimental: In Figure 5A,B, we show the spectra corresponding to POPC 20 mM and POPC 20 mM + 2 mM PAs (all of them in the presence of 0.5% DMSO). The band centered at 1.2 nm^–1 and the secondary band at 3.2 nm^–1 were typical of unilamellar vesicles.[35]
The incorporation of PAs had some distinct consequences. The first and more obvious one is the distinction between stable and unstable systems.

Compound	CMC [1] [mM]	IC50 [2] [µM]	CC50 at 24 h [3] [µM]	stability / aspect of the sample [4]
CCCCCCCCCCCC[N+](C)(C)C.[Br-] [dodecyl trimethyl ammonium bromide]	14.5			
CCCCCCCCCCCCCCCCCCNC(=O)CCC(=O)NCCOCCOCCOCCOCCOCCOCCOCCOCCOCCOCCOCCOCCOCCOCCOCCOCCOCCOCCOCCOCCOCCOCCOCCOCCOCCOCCOCCOCCC(=O)NCCCC[C@H](NC(=O)[C@H](Cc1c[nH]c2ccccc12)NC(=O)[C@H](CC(C)C)NC(=O)[C@H](Cc1ccc(O)cc1)NC(=O)[C@H](CCC(=O)O)NC(=O)[C@H](CC(C)C)NC(=O)[C@@H](NC(=O)[C@@H](N)Cc1c[nH]c2ccccc12)[C@@H](C)CC)C(=O)N[C@H](C(=O)N1CCC[C@H]1C(=O)N[C@@H](Cc1ccccc1)C(=O)N[C@@H](CC(=O)O)C(=O)N[C@@H](Cc1ccccc1)C(=O)N[C@@H](Cc1c[nH]c2ccccc12)C(=O)N[C@@H](CCCNC(=N)N)C(=O)NCC(=O)N[C@H](C(=O)N[C@H](C(N)=O)[C@@H](C)CC)C(C)C)C(C)C [K-PAmonoalkyl] (H-WILEYLWK([PEG28-Suc-NHOctadecyl])VPFDFWRGVI-NH2)		0.37	23	milky
CCCCCCCCCCCCCCCCCCNC(=O)CCC(=O)NCCOCCOCCOCCOCCC(=O)N[C@@H](Cc1c[nH]c2ccccc12)C(=O)N[C@H](C(=O)N[C@@H](CC(C)C)C(=O)N[C@@H](CCC(=O)O)C(=O)N[C@@H](Cc1ccc(O)cc1)C(=O)N[C@@H](CC(C)C)C(=O)N[C@@H](Cc1c[nH]c2ccccc12)C(=O)N[C@@H](CCCCN)C(=O)N[C@H](C(=O)N1CCC[C@H]1C(=O)N[C@@H](Cc1ccccc1)C(=O)N[C@@H](CC(=O)O)C(=O)N[C@@H](Cc1ccccc1)C(=O)N[C@@H](Cc1c[nH]c2ccccc12)C(=O)N[C@@H](CCCNC(=N)N)C(=O)NCC(=O)N[C@H](C(=O)N[C@H](C(N)=O)[C@@H](C)CC)C(C)C)C(C)C)[C@@H](C)CC [PA1PEG3] ({NHOctadecyl-Suc-PEG4}-WILEYLWKVPFDFWRGVI-NH2)		0.23	> 40	
CCCCCCCCCCCCCCCCCCN(CCCCCCCCCCCCCCCCCC)C(=O)CCC(=O)NCCOCCOCCOCCOCCC(=O)N[C@@H](Cc1c[nH]c2ccccc12)C(=O)N[C@H](C(=O)N[C@@H](CC(C)C)C(=O)N[C@@H](CCC(=O)O)C(=O)N[C@@H](Cc1ccc(O)cc1)C(=O)N[C@@H](CC(C)C)C(=O)N[C@@H](Cc1c[nH]c2ccccc12)C(=O)N[C@@H](CCCCN)C(=O)N[C@H](C(=O)N1CCC[C@H]1C(=O)N[C@@H](Cc1ccccc1)C(=O)N[C@@H](CC(=O)O)C(=O)N[C@@H](Cc1ccccc1)C(=O)N[C@@H](Cc1c[nH]c2ccccc12)C(=O)N[C@@H](CCCNC(=N)N)C(=O)NCC(=O)N[C@H](C(=O)N[C@H](C(N)=O)[C@@H](C)CC)C(C)C)C(C)C)[C@@H](C)CC [PA2PEG3] ({N(octadecyl)2-Suc-PEG4}-WILEYLWKVPFDFWRGVI-NH2)			> 40	
CCCCCCCCCC[N+](C)(C)CCCCCCCCCC.[Br-] [didecyl dimethyl ammonium bromide]	1.4			
CCCCCCCCCCCCCCCCCCN(CCCCCCCCCCCCCCCCCC)C(=O)CCC(=O)NCCOCCOCCOCCOCCOCCOCCOCCOCCOCCOCCOCCOCCOCCOCCOCCOCCOCCOCCOCCOCCOCCOCCOCCOCCOCCOCCOCCOCCC(=O)N[C@@H](Cc1c[nH]c2ccccc12)C(=O)N[C@H](C(=O)N[C@@H](CC(C)C)C(=O)N[C@@H](CCC(=O)O)C(=O)N[C@@H](Cc1ccc(O)cc1)C(=O)N[C@@H](CC(C)C)C(=O)N[C@@H](Cc1c[nH]c2ccccc12)C(=O)N[C@@H](CCCCN)C(=O)N[C@H](C(=O)N1CCC[C@H]1C(=O)N[C@@H](Cc1ccccc1)C(=O)N[C@@H](CC(=O)O)C(=O)N[C@@H](Cc1ccccc1)C(=O)N[C@@H](Cc1c[nH]c2ccccc12)C(=O)N[C@@H](CCCNC(=N)N)C(=O)NCC(=O)N[C@H](C(=O)N[C@H](C(N)=O)[C@@H](C)CC)C(C)C)C(C)C)[C@@H](C)CC [N-PAdialkyl] ({N(octadecyl)2-Suc-PEG28}-WILEYLWKVPFDFWRGVI-NH2)		0.15	> 40	precipitated rather fast and made compact flocks
CC[C@H](C)[C@H](NC(=O)[C@@H](NC(=O)CNC(=O)[C@H](CCCNC(=N)N)NC(=O)[C@H](Cc1c[nH]c2ccccc12)NC(=O)[C@H](Cc1ccccc1)NC(=O)[C@H](CC(=O)O)NC(=O)[C@H](Cc1ccccc1)NC(=O)[C@@H]1CCCN1C(=O)[C@@H](NC(=O)[C@H](CCCCN)NC(=O)[C@H](Cc1c[nH]c2ccccc12)NC(=O)[C@H](CC(C)C)NC(=O)[C@H](Cc1ccc(O)cc1)NC(=O)[C@H](CCC(=O)O)NC(=O)[C@H](CC(C)C)NC(=O)[C@@H](NC(=O)[C@H](Cc1c[nH]c2ccccc12)NC(=O)CCOCCOCCOCCOCCNC(=O)[C@@H](N)CSCC(=O)O[C@H]1CC[C@@]2(C)C(=CC[C@H]3[C@@H]4CC[C@H]([C@H](C)CCCC(C)C)[C@@]4(C)CC[C@@H]32)C1)[C@@H](C)CC)C(C)C)C(C)C)C(N)=O [PA3PEG3] (H-C(X2)[PEG4]WILEYLWKVPFDFWRGVI-NH2)		2.01	> 40	
CC[C@H](C)[C@H](NC(=O)[C@@H](NC(=O)CNC(=O)[C@H](CCCNC(=N)N)NC(=O)[C@H](Cc1c[nH]c2ccccc12)NC(=O)[C@H](Cc1ccccc1)NC(=O)[C@H](CC(=O)O)NC(=O)[C@H](Cc1ccccc1)NC(=O)[C@@H]1CCCN1C(=O)[C@@H](NC(=O)[C@H](CCCCN)NC(=O)[C@H](Cc1c[nH]c2ccccc12)NC(=O)[C@H](CC(C)C)NC(=O)[C@H](Cc1ccc(O)cc1)NC(=O)[C@H](CCC(=O)O)NC(=O)[C@H](CC(C)C)NC(=O)[C@@H](NC(=O)[C@H](Cc1c[nH]c2ccccc12)NC(=O)CCOCCOCCOCCOCCOCCOCCOCCOCCOCCOCCOCCOCCOCCOCCOCCOCCOCCOCCOCCOCCOCCOCCOCCOCCOCCOCCOCCOCCNC(=O)[C@@H](N)CSCC(=O)O[C@H]1CC[C@@]2(C)C(=CC[C@H]3[C@@H]4CC[C@H]([C@H](C)CCCC(C)C)[C@@]4(C)CC[C@@H]32)C1)[C@@H](C)CC)C(C)C)C(C)C)C(N)=O [N-PAchol] (H-C(X2)[PEG28]WILEYLWKVPFDFWRGVI-NH2)		0.12	> 40	milky
